Measured values reported in US11478526B2, “Methods of reducing neuroinflammation or toxicity induced by amyloid beta (abeta) using glucocorticoid induced leucine zipper (GILZ) analog peptides” (INDIANA UNIVERSITY RESEARCH AND TECHNOLOGY CORPORATION, priority 2016, dated 2022).

Key:
[1] = tested on: Aβ1-42 exposed HFB cells; assay: Cytokines in culture medium of Aβ1-42 exposed HFB; format: cell-based, human; settings: 50 μM peptide
Procedure: Fetal brain materials (10-20 g) were shipped overnight in chilled Hibernate-E medium (Invitrogen) supplemented with B27 (Invitrogen), GlutaMAX (Invitrogen) and antibiotic-antimycotic solution (Cellgro). HFB were prepared and cultured as described. Briefly, cells were cultured in Neurobasal medium (Invitrogen) without phenol red supplemented with 1×B27, […] GlutaMAX, 1×antibiotic cocktail, 5 ng/mL recombinant fibroblast growth factor 2 (bFGF) (Invitrogen), and 2 μL/mL Normocin (InVivoGen, San Diego, Calif., USA). Cells were counted and seeded onto poly-D-lysine (Sigma-Aldrich) coated 24-well plates (Corning, Lowell, Mass., USA) at 1.5×10^5 cells per well and maintained at 37° C. in a 5% CO2 incubator. Half media changes were performed every 4th day of culture and morphology was monitored via phase contrast microscopy. Culture medium was removed from cells on day 17 (DIV17) and replaced with Neurobasal medium with B27. Appropriate wells were then added vehicle, or carrier peptide or individual GA or control peptide (at 50 μM) for 30 min followed by exposure to Aβ1-42 at a final concentration of 10 μM/well and incubated for 4 hours or 48 hours. Cells and conditioned media were harvested and stored for further analysis. Relative ATP concentration was measured using the CTG kit (Promega). Data is presented as ΔRLU=RLU of Aβ1-42 exposed cells-RLU unexposed cells. Conditioned media collected were assessed for specific cytokines using the OptEIA kits (BD Biosciences). Nuclear and cytoplasmic fractions were extracted using the CelLytic™ NuCLEAR™ Extraction Kit (Sigma) following manufacturer's protocol. Five microgram of nuclear extracts was incubated in a 96-well plate coated with oligonucleotides containing the NF-κβ consensus nucleotide sequence (5′-[…]-3′) (SEQ ID NO: 30). The activated NF-κβ bound to DNA was detected by anti-p65 antibody followed by a peroxidase coupled secondary antibody and substrate using the TransAM kit protocol (Active Motif). Nuclear extracts of Raji cells was used as the positive control.
Select PGA protects against Aβ1-42 induced toxicity, prevents p65 activation and cytokine response in human fetal brain (HFB) cells. […] Viability in terms of relative luminescent Units (RLU) was quantified using a Glowmax luminometer (Promega, Wis.). Data are presented as ARLU=RLU of Aβ1-42 exposed cells-RLU of unexposed cells. […] The mean RLU of vehicle treated HFB varied between 7352.75+/−1265.2 and 16157.5+/−4950. […] The culture supernatants were assessed for cytokines by ELISA (R&D Systems, Minn.). […] Primary HFB cultured similarly and harvested at the end of 4 hours was assessed for nuclear p65 using TransAM kit for NF-κB p65 (Active Motif, Calif.).

[2] = tested on: LPS induced neuroinflammation; assay: LPS induced neuroinflammation: immunohistochemistry of hippocampal gliosis; format: in vivo, mouse; settings: 25 mg/kg intravenously on alternate days; for CD11b+p65+ glial cells in the hippocampus: day 7; for GFAP+ astroglial cells in the hippocampus / Iba1+ microglial cells in the hippocampus: day 7, vs control peptide or untreated
Procedure: Animals and lipopolysaccharide induced neuroinflammation: Male C57/6J mice weighing 32 to 37 grams were housed five per cage at a temperature of 22±2° C. with 12 hour light/12 hour dark cycles with free access to laboratory food and water. Lipopolysaccharides (LPS) from Escherichia coli 026:B6, =10,000 EU/mg, purified by phenol extraction was purchased from Sigma (Sigma Aldrich, Mo., USA). The mice were randomly divided into seven groups: LPS, LPS+GA-1 or GA-2 or CP-1 or CP-2 or CP-3 or TAT. The LPS was administered intraperitoneally at […] in 100 μl of sterile saline followed by corn oil in the morning daily for six days. The GA or CP was administered intravenously at 25 mg/kg in 100 μl of sterile saline on alternate days. Additional control group included mice receiving saline alone. All animals were sacrificed on day 7.
Histology and immunohistochemistry: The mice were sacrificed on day 7 by intra-cardial perfusion of 25 ml of 0.9% saline. Brain from each mouse was removed, one half was immediately frozen and the other half fixed in 4% paraformaldehyde for 24 h and later in 10% neutral buffered formalin for additional 24 h. Fixed tissues were subsequently processed for paraffin embedding. Tissue sections (5μ) stained with Harris's haematoxylin and counterstained with eosin were assessed for inflammation.
Immunohistochemistry: Serial 5μ thick coronal sections of each brain specimen were immunostained for markers of microglial cells, astrocytes and NF-κB p65. Briefly, after deparaffinization and hydration sections were subjected to antigen retrieval by microwave incubation in 10 mM sodium citrate buffer (pH 6.0) followed by sequential incubation in 30% hydrogen peroxide and blocking buffer (Enzo biosciences,) to reduce non-specific binding. The sections were then stained with the following primary monoclonal antibodies from EMD Millipore Corporation, Temecula, Calif., USA: anti-Iba-1 (AIF1 clone: Cat. #MABN92) or anti-glial fibrillary acidic protein (GFAP) clone GA5 (Cat. #MAB3402, Millipore) or anti-CD11b (Cat. #MABF513) clone M1/70 or anti-NF-κB p65 subunit clone 12H11 (Cat. #MAB3026). For mono-staining of Iba-1 and GFAP, detection was with the use of IHC select immunoperoxidase secondary detection system (Millipore). The peroxidase conjugated streptavidin-biotin method was used and brown staining was considered positive. For dual staining of CD11b and NF-κB p65 detection was achieved using the […]® (mouse-HRP/rabbit-AP) IHC kit (Catalog #: ADI-950-100, ENZO Lifesciences, Farmingdale, N.Y., USA). For each marker, to confirm the specificity of the antibodies, a separate set of sections from each group were incubated with only the secondary antibodies, a condition in which no staining was present.
Quantitative analysis of staining intensity: Images of the IHC stained sections were captured using the NIKON Multiphoton microscope with attached DS Ri2 camera. Five areas encompassing the hippocampus of each brain section were analyzed using the ImageJ Software. The number and the relative optical density of Iba1+ and GFAP+ glial cells was determined using the multi-point tool and the IHC-tool box. A training for brown/red color was performed prior to measurement to define the threshold for positive selection. Regions of interest encompassing the hippocampus were identified in each section, and the corresponding images were quantified using integrated optical density, normalized to the background optical density. Measurement of pixel intensity was restricted to the DAB or AP stained pixels of cells within defined circularity. Five consecutive coronal sections were assessed for each mouse.

Substance	relative concentration of IL-6 in culture medium [1]	relative concentration of IL-10 in culture medium [1]	CD11b+p65+ glial cells in the hippocampus [2]	GFAP+ astroglial cells in the hippocampus [2]	Iba1+ microglial cells in the hippocampus [2]
Ac-EPAPESPQV-NH2 [GA-2]	significantly lower	significantly lower	significantly reduced in number and intensity	reduced	reduced
Ac-EPAPLAPYG-NH2 [GA-1]	significantly lower	significantly lower	significantly reduced in number and intensity	reduced	reduced
